Test results as given in the supplement of paper PMC10307832.

Experiments:
Test in all cases: relative viability (nuclei count vs DMSO), 5 days (fraction); higher = more cells survive
Venetoclax + Pictilisib = compound: CC1(C)CCC(CN2CCN(c3ccc(C(=O)NS(=O)(=O)c4ccc(NCC5CCOCC5)c([N+](=O)[O-])c4)c(Oc4cnc5[nH]ccc5c4)c3)CC2)=C(c2ccc(Cl)cc2)C1 [Venetoclax] + CS(=O)(=O)N1CCN(Cc2cc3nc(-c4cccc5[nH]ncc45)nc(N4CCOCC4)c3s2)CC1 [Pictilisib] (partner 1 µM)
How it was run: (§1)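 One day after seeding in 1536-well plates, lung cancer cell lines were dosed by pin tool. Dosing was either single-drug or a fixed anchor-drug dose plus five library-drug doses (not always all listed) in √10 steps. After 5 days, nuclei were stained in one fix-and-stain step and counted on 4× images, and relative viability is the nuclei count of treated wells over that of vehicle wells, given as the median of duplicate plates.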

Selumetinib + Lapatinib = compound: Cn1cnc2c(F)c(Nc3ccc(Br)cc3Cl)c(C(=O)NOCCO)cc21 [Selumetinib] + CS(=O)(=O)CCNCc1ccc(-c2ccc3ncnc(Nc4ccc(OCc5cccc(F)c5)c(Cl)c4)c3c2)o1 [Lapatinib] (partner 2 µM)
How it was run: as §1

Venetoclax + Lapatinib = compound: CC1(C)CCC(CN2CCN(c3ccc(C(=O)NS(=O)(=O)c4ccc(NCC5CCOCC5)c([N+](=O)[O-])c4)c(Oc4cnc5[nH]ccc5c4)c3)CC2)=C(c2ccc(Cl)cc2)C1 [Venetoclax] + CS(=O)(=O)CCNCc1ccc(-c2ccc3ncnc(Nc4ccc(OCc5cccc(F)c5)c(Cl)c4)c3c2)o1 [Lapatinib] (partner 2 µM)
How it was run: as §1

Selumetinib + Alpelisib = compound: Cn1cnc2c(F)c(Nc3ccc(Br)cc3Cl)c(C(=O)NOCCO)cc21 [Selumetinib] + Cc1nc(NC(=O)N2CCC[C@H]2C(N)=O)sc1-c1ccnc(C(C)(C)C(F)(F)F)c1 [Alpelisib] (partner 2 µM)
How it was run: as §1

| Cell Line | relative viability (Venetoclax + Pictilisib; first compound 0.01 µM) | relative viability (Venetoclax + Pictilisib; first compound 0.03162 µM) | relative viability (Venetoclax + Pictilisib; first compound 0.1 µM) | relative viability (Venetoclax + Pictilisib; first compound 0.3162 µM) | relative viability (Venetoclax + Pictilisib; first compound 1 µM) | relative viability (Selumetinib + Lapatinib; first compound 0.02 µM) | relative viability (Selumetinib + Lapatinib; first compound 0.06325 µM) | relative viability (Selumetinib + Lapatinib; first compound 0.2 µM) | relative viability (Selumetinib + Lapatinib; first compound 0.6325 µM) | relative viability (Venetoclax + Lapatinib; first compound 0.01 µM) | relative viability (Venetoclax + Lapatinib; first compound 0.03162 µM) | relative viability (Venetoclax + Lapatinib; first compound 0.1 µM) | relative viability (Venetoclax + Lapatinib; first compound 0.3162 µM) | relative viability (Venetoclax + Lapatinib; first compound 1 µM) | relative viability (Selumetinib + Alpelisib; first compound 0.02 µM) | relative viability (Selumetinib + Alpelisib; first compound 0.06325 µM) | relative viability (Selumetinib + Alpelisib; first compound 0.2 µM) | relative viability (Selumetinib + Alpelisib; first compound 0.6325 µM) |
| --- | --- | --- | --- | --- | --- | --- | --- | --- | --- | --- | --- | --- | --- | --- | --- | --- | --- | --- |
| NCI-H1299 | 0.869 | 0.874 | 0.637 | 0.769 | 0.67 | 1.06 | 0.959 | 1.02 | 0.812 | 0.993 | 0.96 | 0.976 | 0.959 | 0.909 | 1.04 | 1.03 | 1.03 | 0.697 |
| NCI-H1563 | 0.881 | 0.653 | 0.648 | 0.642 | 0.698 | 0.891 | 0.851 | 0.944 | 0.911 | 0.691 | 1.08 | 1.14 | 1.28 | 0.953 | 0.969 | 0.838 | 0.964 | 0.877 |
| HCC-827 | 1.01 | 1.31 | 0.912 | 0.929 | 1.02 | 0.175 | 0.182 | 0.187 | 0.18 | 0.234 | 0.216 | 0.174 | 0.191 | 0.233 | 0.961 | 0.786 | 0.863 | 0.791 |
| NCI-H1651 | 0.6 | 0.626 | 0.481 | 0.482 | 0.533 | 0.691 | 0.768 | 0.763 | 0.752 | 0.92 | 0.885 | 0.747 | 0.905 | 0.764 | 0.779 | 0.899 | 0.975 | 0.828 |
| HCC-366 | 0.193 | 0.154 | 0.0731 | 0.184 | 0.138 | 1.06 | 0.914 | 0.872 | 0.612 | 1.1 | 1.01 | 0.933 | 1.04 | 0.951 | 0.361 | 0.273 | 0.196 | 0.158 |
| EKVX | 0.451 | 0.432 | 0.423 | 0.469 | 0.395 | 0.171 | 0.263 | 0.241 | 0.168 | 0.191 | 0.22 | 0.219 | 0.193 | 0.185 | 0.678 | 0.711 | 0.61 | 0.448 |
| NCI-H2228 | 0.321 | 0.416 | 0.395 | 0.358 | 0.494 | 1.01 | 0.765 | 0.852 | 0.695 | 1.15 | 1.29 | 1.21 | 1.09 | 0.954 | 0.72 | 0.608 | 0.416 | 0.411 |
| LK-2 | 0.799 | 0.636 | 0.512 | 0.54 | 0.613 | 1.16 | 0.852 | 0.848 | 0.924 | 0.973 | 0.99 | 0.846 | 0.894 | 0.767 | 1.01 | 1.13 | 0.949 | 0.985 |
| NCI-H1650 | 0.531 | 0.713 |  | 0.723 | 0.622 | 0.704 | 0.639 | 0.704 | 0.721 | 0.764 | 0.873 |  | 1.01 | 0.81 |  |  |  |  |
